Experimental data from the Kinase Knowledgebase extract (Sharma et al. 2016).
In brackets after ≈: the same amount, converted by molar mass. Several values for one entry are separate records, joined by “and”; a condition that tells them apart may be missing. Equal values may be shown once.

Target: EGFR (UniProt P00533)
Sequence (P00533 whole entry, looked up): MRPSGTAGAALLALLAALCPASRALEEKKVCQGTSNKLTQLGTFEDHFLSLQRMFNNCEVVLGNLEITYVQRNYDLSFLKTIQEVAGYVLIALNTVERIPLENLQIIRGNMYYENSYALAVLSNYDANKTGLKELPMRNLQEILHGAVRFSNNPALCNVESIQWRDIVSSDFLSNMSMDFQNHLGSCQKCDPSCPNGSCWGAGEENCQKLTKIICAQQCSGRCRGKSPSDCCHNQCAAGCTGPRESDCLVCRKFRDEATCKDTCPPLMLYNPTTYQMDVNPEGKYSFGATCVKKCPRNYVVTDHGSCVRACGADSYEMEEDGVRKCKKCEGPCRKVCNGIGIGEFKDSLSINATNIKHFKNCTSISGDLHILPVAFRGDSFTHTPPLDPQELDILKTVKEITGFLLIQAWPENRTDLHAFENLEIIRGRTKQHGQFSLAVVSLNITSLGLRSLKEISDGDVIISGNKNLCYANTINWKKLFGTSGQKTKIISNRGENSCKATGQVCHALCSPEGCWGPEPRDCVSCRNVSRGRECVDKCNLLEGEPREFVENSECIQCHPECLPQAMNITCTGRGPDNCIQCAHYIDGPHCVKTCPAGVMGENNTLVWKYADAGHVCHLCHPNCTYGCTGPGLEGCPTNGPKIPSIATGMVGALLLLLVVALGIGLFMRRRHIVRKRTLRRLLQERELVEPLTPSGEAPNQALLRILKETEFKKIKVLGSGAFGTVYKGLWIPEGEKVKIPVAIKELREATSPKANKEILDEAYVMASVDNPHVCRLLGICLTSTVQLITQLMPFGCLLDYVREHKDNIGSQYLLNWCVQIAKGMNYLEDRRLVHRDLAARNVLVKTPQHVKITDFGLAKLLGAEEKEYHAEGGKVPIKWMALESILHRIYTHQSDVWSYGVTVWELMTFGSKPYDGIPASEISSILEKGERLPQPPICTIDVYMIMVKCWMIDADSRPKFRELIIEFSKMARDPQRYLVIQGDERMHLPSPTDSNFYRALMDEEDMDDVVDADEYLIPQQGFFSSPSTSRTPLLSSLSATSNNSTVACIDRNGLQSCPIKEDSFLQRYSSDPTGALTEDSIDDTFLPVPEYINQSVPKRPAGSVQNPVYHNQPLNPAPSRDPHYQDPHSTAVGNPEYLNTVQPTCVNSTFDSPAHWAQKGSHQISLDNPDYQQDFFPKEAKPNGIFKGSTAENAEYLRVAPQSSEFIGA

Structure (SMILES) | IC50
Cc1ccc2c(c1)CCCN2c1ncnc(NCc2ccccn2)n1 | > 4.5 µg/mL
COc1cc(Nc2ncnc(-n3c(NCCc4cccnc4)nc4ccccc43)n2)cc(OC)c1OC | > 4.5 µg/mL
COc1cc(Nc2ncnc(-n3c(N[C@H](C)c4ccccc4)nc4ccccc43)n2)cc(OC)c1OC | > 4.5 µg/mL
COc1cc(Nc2ncnc(-n3cc(C#N)c4ccccc43)n2)cc(OC)c1OC | > 4.5 µg/mL
COc1cc(Nc2ncnc(Cc3ccc4c(cnn4Cc4ccccc4)c3)n2)cc(OC)c1OCCN1CCOCC1 | < 0.4 µg/mL
c1ccc(CNc2ncccc2-c2ncnc(Nc3cccc(Cn4ccnn4)c3)n2)cc1 | 0.4 to 2.4 µg/mL (≈ 0.918 to 5.51 µM)
COc1cc(C)c(Nc2ncnc(-c3cccs3)n2)cc1OC | > 4.5 µg/mL
Cc1ccc2c(c1)CCCN2c1ncnc(Nc2ccc(F)c(F)c2)n1 | 0.4 to 2.4 µg/mL (≈ 1.13 to 6.79 µM)
COc1cc(Nc2ncnc(-c3cccnc3NCCC(C)(C)C)n2)cc(OC)c1OC | > 4.5 µg/mL
c1ccc(CCNc2ncnc(Nc3ccc4c(cnn4Cc4ccccc4)c3)n2)cc1 | > 4.5 µg/mL
COc1cc(Nc2ncnc(N(C/C=C/c3ccccc3)c3ccc(Cl)cc3)n2)cc(OC)c1OC | < 0.4 µg/mL
Fc1ccc(CNc2ncccc2-c2ncnc(Nc3cccc(Cn4ccnn4)c3)n2)cc1 | 2.4 to 3.5 µg/mL (≈ 5.29 to 7.72 µM)
Nc1ncnc(Nc2cccc(C(F)(F)F)c2)n1 | > 4.5 µg/mL
CN(c1ccc2c(cnn2Cc2ccccc2)c1)c1ncnc(Nc2cccc(Br)c2)n1 | < 0.4 µg/mL
COc1ccc(Nc2ncnc(NCC(O)c3ccccc3)n2)cc1OC (stereo unspecified) | 3.5 to 4.5 µg/mL (≈ 9.53 to 12.2 µM)
COc1cc(Nc2ncnc(Nc3nccs3)n2)cc(OC)c1OC | > 4.5 µg/mL
COc1ccc(Nc2ncnc(N(C)CCc3ccccn3)n2)cc1OC | 0.4 to 2.4 µg/mL (≈ 1.09 to 6.55 µM)
COc1ccc(Nc2ncnc(Nc3ccc4c(c3)CCC4)n2)cc1OC | 0.4 to 2.4 µg/mL (≈ 1.1 to 6.6 µM)
COc1cc(C)c(Nc2ncnc(Nc3cc(-c4ccc(C)cc4)n[nH]3)n2)cc1OC | > 4.5 µg/mL
CN(c1cccc(Cl)c1)c1ncnc(Nc2cccc(OC(F)(F)F)c2)n1 | < 0.4 µg/mL
O=C(O)Cc1cccc(Nc2ncnc(-n3c(NCc4ccccc4)nc4ccccc43)n2)c1 | < 0.4 µg/mL
COc1ccc(Nc2ncnc(NCc3ncc(C(F)(F)F)cc3Cl)n2)cc1OC | 2.4 to 3.5 µg/mL (≈ 5.44 to 7.94 µM)

Structure (SMILES) | IC50
COc1ccc(Nc2ncnc(NCCNC(C)=O)n2)cc1OC | > 4.5 µg/mL
COc1cc(Nc2ncnc(N(CCC(C)C)c3ccc(Cl)cc3)n2)cc(OC)c1OC | < 0.4 µg/mL
O=c1[nH]c2ccccc2n1-c1ncnc(Nc2cccc3cccnc23)n1 | > 4.5 µg/mL
CCc1ccc(Nc2ncnc(-n3c(N)nc4ccccc43)n2)cc1 | 0.4 to 2.4 µg/mL (≈ 1.21 to 7.24 µM)
COc1cc(Nc2ncnc(Nc3ccc4cn[nH]c4c3)n2)cc(OC)c1OC | 0.4 to 2.4 µg/mL (≈ 1.02 to 6.1 µM)
Nc1ncnc(Nc2cccc(Nc3ncnc(N)n3)c2)n1 | > 4.5 µg/mL
COc1ccc(Nc2ncnc(N(C)C3CCN(C)CC3)n2)cc1OC | > 4.5 µg/mL
CCN1CCCC1CNc1ncnc(Nc2ccc(OC)c(OC)c2)n1 (stereo unspecified) | > 4.5 µg/mL
C=CCNc1ncccc1-c1ncnc(Nc2cc(OC)c(OC)c(OC)c2)n1 | > 4.5 µg/mL
COc1cc(Nc2ncnc(Nc3cc(-c4ccc(C(=O)NCCc5ccccc5)cc4)n[nH]3)n2)cc(OC)c1OC | > 4.5 µg/mL
CC(=O)c1ccc(Nc2ncnc(Nc3ccc4c(cnn4Cc4ccccc4)c3)n2)cc1 | < 0.4 µg/mL
Cc1ccc2c(c1)CCCN2c1ncnc(NCCN2CCOCC2)n1 | > 4.5 µg/mL
COc1ccc2c(c1)c(CCNC(C)=O)cn2-c1ncnc(Nc2cc(OC)c(OC)c(OC)c2)n1 | > 4.5 µg/mL
Cc1cccc(Nc2ncnc(N(C)c3cccc(Br)c3)n2)c1 | < 0.4 µg/mL
COc1cc(Nc2ncnc(-n3c(NCc4ncccc4C)nc4ccccc43)n2)cc(OC)c1OC | > 4.5 µg/mL
COc1cc(Nc2ncnc(-n3c(=O)oc4ccccc43)n2)cc(OC)c1OC | 0.4 to 2.4 µg/mL (≈ 1.01 to 6.07 µM)
COc1cc(Nc2ncnc(-n3c(Nc4cccc(F)c4)nc4ccccc43)n2)cc(OC)c1OC | 2.4 to 3.5 µg/mL (≈ 4.92 to 7.18 µM)
COc1cc(Nc2ncnc(-c3cccnc3NCc3ccc(F)cc3)n2)cc(OC)c1OCCN1CCOCC1 | 2.4 to 3.5 µg/mL (≈ 4.27 to 6.23 µM)
CN(c1ccccc1)c1ncnc(-n2c(N)nc3ccccc32)n1 | 2.4 to 3.5 µg/mL (≈ 7.56 to 11 µM)
NC(=O)Cc1cccc(Nc2ncnc(Nc3cccc(Br)c3)n2)c1 | < 0.4 µg/mL
COCCNc1ncnc(Nc2cc(-c3ccc(C(=O)OC)cc3)n[nH]2)n1 | > 4.5 µg/mL
Clc1cc(Cl)cc(Nc2ncnc(-n3cccc3)n2)c1 | > 4.5 µg/mL

Structure (SMILES) | IC50
COc1cc(Nc2ncnc(Nc3cccc(Br)c3)n2)cc(OC)c1OC | < 0.4 µg/mL
COc1cc(Nc2ncnc(Nc3ccccn3)n2)cc(OC)c1OC | > 4.5 µg/mL
COc1cc(Nc2ncnc(Nc3cc(-c4ccc(Cl)c(Cl)c4)n[nH]3)n2)cc(OC)c1OC | 2.4 to 3.5 µg/mL (≈ 4.91 to 7.17 µM)
C=CCN(c1cccc(Cl)c1)c1ncnc(Nc2cc(OC)cc(OC)c2)n1 | < 0.4 µg/mL
COc1cc(Nc2ncnc(-c3ccc(N4CCOCC4)nc3)n2)cc(OC)c1OC | > 4.5 µg/mL
c1ccc(Nc2ncccc2-c2ncnc(Nc3ccc4[nH]ncc4c3)n2)cc1 | 3.5 to 4.5 µg/mL (≈ 9.2 to 11.8 µM)
Clc1ccc(-c2csc(Nc3ncnc(-n4cccc4)n3)n2)cc1 | > 4.5 µg/mL
COc1ccc(Nc2ncnc(Nc3ccc(C)c(O)c3)n2)cc1OC | < 0.4 µg/mL
COc1cc(Nc2nc(F)nc(Nc3cccc(OC(F)(F)F)c3)n2)cc(OC)c1OC | < 0.4 µg/mL
COc1ccc(Nc2ncnc(N(C)c3ccc(C(=O)O)cc3)n2)cc1OC | > 4.5 µg/mL
COc1cc(Nc2ncnc(Nc3cc(C(F)(F)F)ccc3F)n2)cc(OC)c1OC | < 0.4 µg/mL
COc1cc(Nc2ncnc(-n3c(=O)[nH]c4ccccc43)n2)cc(OC)c1OCCN1CCOCC1 | 2.4 to 3.5 µg/mL (≈ 4.86 to 7.09 µM)
COc1cc(Nc2ncnc(Nc3[nH]ncc3-c3cccs3)n2)cc(OC)c1OC | > 4.5 µg/mL
CCOc1ccc(Nc2ncnc(-n3c(N)nc4ccccc43)n2)cc1OCC | 2.4 to 3.5 µg/mL (≈ 6.13 to 8.94 µM)
Clc1cc(Nc2ncnc(Nc3ccc4c(cnn4Cc4ccccc4)c3)n2)cc(Cl)c1Cl | 0.4 to 2.4 µg/mL (≈ 0.805 to 4.83 µM)
COc1cc(Nc2ncnc(N(CC(=O)O)c3ccc4c(c3)OCO4)n2)cc(OC)c1OC | 0.4 to 2.4 µg/mL (≈ 0.878 to 5.27 µM)
COc1ccc(Nc2ncnc(NCc3c(C)cccc3Cl)n2)cc1OC | > 4.5 µg/mL
CN(c1cccc(Cl)c1)c1ncnc(Nc2ccc(F)c(Cl)c2)n1 | < 0.4 µg/mL
COc1cc(Nc2ncnc(-c3cccnc3Nc3cccc(C(F)(F)F)c3)n2)cc(OC)c1OC | > 4.5 µg/mL
CC(=O)Nc1ccc(Nc2ncnc(N3CCCc4cc(C)ccc43)n2)cc1 | < 0.4 µg/mL
O=c1[nH]c2ccccc2n1-c1ncnc(Nc2ccncn2)n1 | 2.4 to 3.5 µg/mL (≈ 7.84 to 11.4 µM)
COc1cc(Nc2ncnc(-n3c(NC(CCO)c4ccccc4)nc4ccccc43)n2)cc(OC)c1OC (stereo unspecified) | > 4.5 µg/mL

Structure (SMILES) | IC50
c1ccc(Cn2ncc3cc(Nc4ncnc(Nc5ccc6ncsc6c5)n4)ccc32)cc1 | < 0.4 µg/mL
COCCOc1ccc(Nc2ncnc(-n3c(N)nc4ccccc43)n2)cc1OCCOC | > 4.5 µg/mL
NS(=O)(=O)c1ccc(CNc2ncnc(-n3c(=O)[nH]c4ccccc43)n2)cc1 | > 4.5 µg/mL
c1coc(-c2cc(Nc3ncnc(Nc4ccc(N5CCOCC5)cc4)n3)[nH]n2)c1 | 2.4 to 3.5 µg/mL (≈ 5.93 to 8.65 µM)
c1ccc(-c2ncnc(Nc3ccc(OCCCN4CCOCC4)cc3)n2)cc1 | > 4.5 µg/mL
CNS(=O)(=O)Cc1ccc(Nc2ncnc(Nc3cc(-c4ccc(C(=O)OC)cc4)n[nH]3)n2)cc1 | 2.4 to 3.5 µg/mL (≈ 4.85 to 7.08 µM)
CCC(O)CNc1ncnc(Nc2ccc(OC)c(OC)c2)n1 (stereo unspecified) | > 4.5 µg/mL
COc1cc(Nc2ncnc(-n3c(NC4CCCc5ccccc54)nc4ccccc43)n2)cc(OC)c1OC (stereo unspecified) | 3.5 to 4.5 µg/mL and 2.4 to 3.5 µg/mL
COc1ccc(Nc2ncnc(N(C)[C@H](C)c3ccccc3)n2)cc1OC | 0.4 to 2.4 µg/mL (≈ 1.09 to 6.57 µM)
O=C(O)Cc1cccc(Nc2ncnc(-c3cccnc3Nc3ccccc3)n2)c1 | 0.4 to 2.4 µg/mL (≈ 1 to 6.02 µM)
COc1cc(Nc2ncnc(N3CCN(c4ccccn4)CC3)n2)cc(OC)c1OC | > 4.5 µg/mL
NC(=O)Cc1cccc(Nc2ncnc(-n3c(N)nc4ccccc43)n2)c1 | > 4.5 µg/mL
COc1cc(Nc2ncnc(-n3c(NC(C)(C)c4ccccc4)nc4ccccc43)n2)cc(OC)c1OC | > 4.5 µg/mL
COc1ccc(Nc2ncnc(-n3c(N)nc4ccccc43)n2)cn1 | > 4.5 µg/mL
Nc1nc2ccccc2n1-c1ncnc(Nc2ccc(Cl)cc2)n1 | 0.4 to 2.4 µg/mL (≈ 1.18 to 7.11 µM)
COc1cc(Nc2ncnc(-c3cccnc3Nc3cccc(C(C)=O)c3)n2)cc(OC)c1OC | > 4.5 µg/mL
COCCOc1ccc(Nc2ncnc(-n3c(N)nc4ccccc43)n2)cc1OC | 3.5 to 4.5 µg/mL (≈ 8.59 to 11 µM)
COC(=O)c1ccc(-c2cc(Nc3ncnc(Nc4cc(F)cc(F)c4)n3)[nH]n2)cc1 | > 4.5 µg/mL
COc1cc(Nc2ncnc(Nc3ccc4ccccc4c3)n2)cc(OC)c1OC | 0.4 to 2.4 µg/mL (≈ 0.991 to 5.95 µM)
COc1ccc(Nc2ncnc(Nc3cc(Cl)cc(Cl)c3)n2)cc1OC | 2.4 to 3.5 µg/mL (≈ 6.12 to 8.92 µM)
CNS(=O)(=O)Cc1ccc(Nc2ncnc(Nc3ccc4c(cnn4Cc4ccccc4)c3)n2)cc1 | 0.4 to 2.4 µg/mL (≈ 0.799 to 4.79 µM)
COc1cc(Nc2ncnc(-n3c(NCCCCO)nc4ccccc43)n2)cc(OC)c1OC | > 4.5 µg/mL

Structure (SMILES) | IC50
c1ccc(Cn2ncc3cc(Nc4ncnc(Nc5ncccn5)n4)ccc32)cc1 | 0.4 to 2.4 µg/mL (≈ 1.01 to 6.07 µM)
COc1cc(Nc2ncnc(-n3c(NCc4ccc5c(c4)OCO5)nc4ccccc43)n2)cc(OC)c1OC | > 4.5 µg/mL
O=c1[nH]c2ccccc2n1-c1ncnc(Nc2ccc(OC(F)(F)F)cc2)n1 | > 4.5 µg/mL
COc1cc(Nc2ncnc(-n3c(NCc4ccccc4F)nc4ccccc43)n2)cc(OC)c1OC | > 4.5 µg/mL
Cc1ccc2c(c1)CCCN2c1ncnc(NCc2ccc(C(=O)O)cc2)n1 | > 4.5 µg/mL
COc1cc(Nc2ncnc(N3CCc4ccc([N+](=O)[O-])cc43)n2)cc(OC)c1OC | > 4.5 µg/mL
COc1cc(Nc2ncnc(-c3cccnc3Nc3cccc(Oc4ccccc4)c3)n2)cc(OC)c1OC | > 4.5 µg/mL
COc1cc(Nc2ncnc(Nc3cnc4ccccc4c3)n2)cc(OC)c1OC | 0.4 to 2.4 µg/mL (≈ 0.989 to 5.93 µM)
CC(C)(C)c1cc(Nc2ncnc(Nc3cccc(CC(=O)O)c3)n2)[nH]n1 | 0.4 to 2.4 µg/mL (≈ 1.09 to 6.53 µM)
CN(c1cccc(Cl)c1)c1ncnc(Nc2ccc(Cl)c(Cl)c2)n1 | > 4.5 µg/mL
CCOC(=O)N1CCC(Nc2ncnc(N3CCCc4cc(C)ccc43)n2)CC1 | > 4.5 µg/mL
COc1cc(Nc2ncnc(-n3c(Nc4ccccc4)nc4ccccc43)n2)cc(OC)c1OC | > 4.5 µg/mL
COc1cc(Nc2ncnc(-n3c(NCCCc4ccccc4)nc4ccccc43)n2)cc(OC)c1OC | > 4.5 µg/mL
COc1cc(Nc2ncnc(N(C)c3cccc(Cl)c3)n2)cc(OC)c1 | < 0.4 µg/mL
COc1ccc(Nc2ncnc(Nc3cccc(C)c3)n2)cc1OC | < 0.4 µg/mL
COc1cccc(CCNc2ncnc(Nc3ccc4c(cnn4Cc4ccccc4)c3)n2)c1OC | > 4.5 µg/mL
COC(=O)n1c(=O)n(-c2ncnc(Nc3cc(OC)c(OC)c(OC)c3)n2)c2ccccc21 | > 4.5 µg/mL
COc1cc(Nc2ncnc(-n3ccc4cc(O)ccc43)n2)cc(OC)c1OC | > 4.5 µg/mL
